Converted amounts (≈) assume the structure as drawn.
Assays:
Type in all cases: cell-based
[1] = test system: A549 (human lung cancer cells); experiment: Inhibition of proliferation of tumor cell lines (MTT), A549; conditions: Homo sapiens, A549, 72 h, read-out: IC50 value of compound for inhibition of proliferation of tumor cell lines, A549
Procedure: (§1) In this example, the inhibitory activity of compounds of the present invention against proliferation of seven human tumor cell lines and mouse B16-F10 melanoma cells was tested in vitro, and the IC50 value (50% inhibitory concentration) of compounds against each tumor cell line was calculated.
(§2) The seven human tumor cell lines are: MCF-7 (human breast cancer cells), LOVO (human colon cancer cells), A549 (human lung cancer cells), BGC-823 (human gastric cancer cells), SMMC-7721 (human liver cancer cells), K562 (human leukemia cells), and HeLa (human cervical cancer cells).
(§3) IC50 values of the compounds for A549, BGC-823, LOVO, MCF-7, SMMC-7721, HeLa, and B16-F10 cells were tested. The above cells were routinely cultured in 1640 nutrient solution containing 10% calf serum, with passage for 1 time every 2 days, and the cells in logarithmic growth phase were taken for experiments. After the A549, BGC-823, LOVO, MCF-7, SMMC-7721, HeLa and B16-F10 cells in logarithmic growth phase were subjected to 0.25% trypsin digestion, they were blown into a single cell suspension, and then the cell concentration was adjusted to about 1×10^5·mL^−1 using RPMI 1640 solution containing 10% calf serum. The cells were seeded in a 96-well culture plate at 100 μL per well, and cultured for 24 hours until the cells were attached. K562 cells were taken and centrifuged and diluted into 2×10^5·mL^−1 single cell suspension with RPMI 1640 solution containing 10% calf serum, and inoculated into a 96-well culture plate at 100 μL per well.
(§4) 100 μL of sample solution with different concentrations to be tested were added to the above 96-well plate, each concentration was added to 4 wells in parallel, and the cell control group was added with an equal volume of RPMI 1640 medium containing 10% calf serum to make a reaction volume of 200 μL. After incubating in an incubator at 37° C., 5% CO2 for 72 h, 10 μL of 5 mg·mL^−1 MTT solution was added to each well, and incubated at 37° C. for 4 h. The supernatant was carefully aspirated, 180 μL of DMSO was added to each well followed by shaking, and the absorbance (OD) value was measured at 570 nm on the microplate reader. The inhibition rate was calculated, and regression equation was established with the logarithmic value of the sample concentration and the inhibition rate (IR) to find the IC50 value of the compound against the cells to be tested. IR (%)=(1−OD value of the experimental group/OD value of the cell control group)×100%

[2] = test system: mouse B16-F10 melanoma cells; experiment: Inhibition of proliferation of tumor cell lines (MTT), B16-F10; conditions: Mus musculus, B16-F10, 72 h, read-out: IC50 value of compound for inhibition of proliferation of tumor cell lines, B16-F10
Procedure: as §1, §3, §4

[3] = test system: MCF-7 (human breast cancer cells); experiment: Inhibition of proliferation of tumor cell lines (MTT), MCF-7; conditions: Homo sapiens, MCF7, MCF-7, 72 h, read-out: IC50 value of compound for inhibition of proliferation of tumor cell lines, MCF-7
Procedure: as §1, §2, §3, §4

[4] = test system: neutrophilic granulocytes; experiment: Neutrophil oxidative burst (luminol chemiluminescence); conditions: Neutrophil; 3 μg/mL; rat neutrophils; (Csample−Ccontrol)/Ccontrol×100%; read-out: Efficiency of compounds in stimulating neutrophil oxidative burst
Procedure: This example investigated the effect of compound on neutrophil oxidative burst and calculated the efficiency of each compound in stimulating neutrophil oxidative burst.
Blood was taken from the abdominal aorta of rat. The neutrophilic granulocytes were isolated by the operational procedure of the rat peripheral blood neutrophil isolation kit. The neutrophilic granulocytes were re-suspended by Hanks, and were plated in a 96-well white plate at 1×10^5 cells/well, 80 μL/well; 1 mM of Luminol was added at 10 μL/well; 10 μL of the sample was added to each well, and the degree of oxidative burst was evaluated by chemiluminescence. Calculation formula of Efficiency: Efficiency (%)=(Csample−Ccontrol)/Ccontrol×100%

[5] = test system: LOVO (human colon cancer cells); experiment: Inhibition of proliferation of tumor cell lines (MTT), LOVO; conditions: Homo sapiens, 72 h, read-out: IC50 value of compound for inhibition of proliferation of tumor cell lines, LOVO
Procedure: as §1, §2, §3, §4

[6] = test system: BGC-823 (human gastric cancer cells); experiment: Inhibition of proliferation of tumor cell lines (MTT), BGC-823; conditions: Homo sapiens, BGC-823, 72 h, read-out: IC50 value of compound for inhibition of proliferation of tumor cell lines, BGC-823
Procedure: as §1, §2, §3, §4

[7] = test system: SMMC-7721 (human liver cancer cells); experiment: Inhibition of proliferation of tumor cell lines (MTT), SMMC-7721; conditions: Homo sapiens, SMMC-7721, 72 h, read-out: IC50 value of compound for inhibition of proliferation of tumor cell lines, SMMC-7721
Procedure: as §1, §2, §3, §4

[8] = test system: HeLa (human cervical cancer cells); experiment: Inhibition of proliferation of tumor cell lines (MTT), HeLa; conditions: Homo sapiens, 72 h, read-out: IC50 value of compound for inhibition of proliferation of tumor cell lines, HeLA
Procedure: as §1, §2, §3, §4

[9] = test system: K562 (human leukemia cells); experiment: Inhibition of proliferation of tumor cell lines (MTT), K562; conditions: Homo sapiens, K562, 72 h, read-out: IC50 value of compound for inhibition of proliferation of tumor cell lines, K562
Procedure: as §1, §2, §3, §4

[10] = test system: release of IL-8 by human keratinocytes (HaCaT); experiment: Release of IL-8 by human keratinocytes (HaCaT), IL-8 Elisa; conditions: Homo sapiens, HaCaT; 1 μg/mL; 24 h; (Csample−Ccontrol)/Ccontrol×100%; read-out: Efficiency of compound in stimulating the release of IL-8 by HaCaT cells
Procedure: This Example investigated the effect of compound on release of IL-8 by human keratinocytes (HaCaT) and calculated the efficiency of each compound in stimulating the release of IL-8 by human keratinocytes (HaCaT).
Hacat cells were cultured in MEM+10% FBS under the conditions of 37° C., 5% CO2, and when the cells reached 80-95% fusion, they were inoculated into a 96-well culture plate (1×10^4 cells/well) at 100 μL/well, and incubated for 18-24 h. The supernatant was discarded and the cells were incubated for 3-6 h in 1% FBS medium. Different concentrations of the sample solution of compound to be tested were added to each well, and the cell control group was added with an equal volume of 1% FBS medium at 10 μL/well, and incubated for 24 h. The supernatant was taken and tested according to the operation sequence of the IL-8 Elisa kit. Calculation formula of Efficiency: Efficiency (%)=(Csample−Ccontrol)/Ccontrol×100%

CCCCCCCC(=O)O[C@@]12C[C@@H](C)[C@]34C=C(C)[C@H](O)[C@@]3(O)[C@H](O)C(CO)=C[C@H](C4=O)[C@@H]1C2(C)C [Compound 7, 13-O-n-octanoyl-ingenol]
IC50 [1]: 29.7 µg/mL (≈ 60.5 µM) | IC50 [2]: 38.4 µg/mL (≈ 78.3 µM) | IC50 [3]: 16.2 µg/mL (≈ 33 µM) | activation at 3 µg/mL [4]: 45% | IC50 [5]: 24.1 µg/mL (≈ 49.1 µM) | IC50 [6]: 25.1 µg/mL (≈ 51.2 µM) | IC50 [7]: 16 µg/mL (≈ 32.6 µM) | IC50 [8]: 29.3 µg/mL (≈ 59.7 µM) | IC50 [9]: 1.72 µg/mL (≈ 3.51 µM)

CCCCCCCCCCCC(=O)O[C@@]12C[C@@H](C)[C@]34C=C(C)[C@H](O)[C@@]3(O)[C@H](O)C(CO)=C[C@H](C4=O)[C@@H]1C2(C)C [Compound 1c, 13-O-dodecanoyl-ingenol]
IC50 [1]: 11.1 µg/mL (≈ 20.3 µM) | IC50 [3]: 6.36 µg/mL (≈ 11.6 µM) | IC50 [5]: 8.97 µg/mL (≈ 16.4 µM) | IC50 [6]: 6.19 µg/mL (≈ 11.3 µM) | IC50 [7]: 6.49 µg/mL (≈ 11.9 µM) | IC50 [8]: 15.1 µg/mL (≈ 27.6 µM) | IC50 [9]: 5.51 µg/mL (≈ 10.1 µM)

CC1=C[C@]23C(=O)[C@@H](C4OC4(C)[C@@H](O)[C@]2(O)[C@H]1O)[C@H]1C(C[C@H]3C)C1(C)C (stereo partly drawn) [Compound 1e, 6,7-epoxy-20-deoxy-ingenol]
IC50 [1]: > 200 µg/mL | IC50 [3]: > 200 µg/mL | IC50 [5]: > 200 µg/mL | IC50 [6]: > 200 µg/mL | IC50 [7]: > 200 µg/mL | IC50 [9]: 5.52 µg/mL (≈ 15.8 µM)

CCCCCCCCCCCC(=O)O[C@@]12C[C@@H](C)[C@]34C=C(C)[C@H](O)[C@@]3(O)[C@@H]3OC(C)(C)OCC3=C[C@H](C4=O)[C@@H]1C2(C)C [Compound 2b, 13-O-dodecanoyl-ingenol 5,20-acetonide]
IC50 [1]: 15 µg/mL (≈ 25.6 µM) | IC50 [3]: 13.7 µg/mL (≈ 23.3 µM) | IC50 [5]: 23 µg/mL (≈ 39.2 µM) | IC50 [6]: 17.8 µg/mL (≈ 30.3 µM) | IC50 [7]: 15.2 µg/mL (≈ 25.9 µM) | IC50 [9]: 0.85 µg/mL (≈ 1.45 µM)

CCCCCCCCCCCC(=O)O[C@@]12C[C@@H](C)[C@]34C=C(C)[C@H](OC(=O)CCC)[C@@]3(O)[C@H](O)C(CO)=C[C@H](C4=O)[C@@H]1C2(C)C [Compound 11, 3-O-n-butanoyl-13-O-dodecanoyl-ingenol]
IC50 [1]: 14.3 µg/mL (≈ 23.2 µM) | IC50 [2]: 26.2 µg/mL (≈ 42.5 µM) | IC50 [3]: 18.5 µg/mL (≈ 30 µM) | activation at 3 µg/mL [4]: 33.5% | IC50 [5]: 8.82 µg/mL (≈ 14.3 µM) | IC50 [6]: 13.4 µg/mL (≈ 21.7 µM) | IC50 [7]: 19.1 µg/mL (≈ 31 µM) | IC50 [8]: 20.3 µg/mL (≈ 32.9 µM) | IC50 [9]: 0.1 µg/mL (≈ 0.162 µM)

CCCCCCCCCC(=O)O[C@@]12C[C@@H](C)[C@]34C=C(C)[C@H](O)[C@@]3(O)[C@H](O)C(COC(=O)C(C)C(C)C)=C[C@H](C4=O)[C@@H]1C2(C)C (stereo partly drawn) [Compound 14, 20-O-(2,3-dimethylbutyryl)-13-O-decanoyl-ingenol]
activation at 1 µg/mL [10]: 22.6% | activation at 3 µg/mL [4]: 62.8%

CCCCCCCCCCCC(=O)O[C@@]12C[C@@H](C)[C@]34C=C(C)[C@H](O)[C@@]3(O)[C@H](O)C(C)=C[C@H](C4=O)[C@@H]1C2(C)C [Compound 1d, 20-deoxy-13-O-dodecanoyl-ingenol]
IC50 [1]: 26.8 µg/mL (≈ 50.5 µM) | IC50 [3]: 29.2 µg/mL (≈ 55 µM) | IC50 [5]: 19.2 µg/mL (≈ 36.2 µM) | IC50 [6]: 15.4 µg/mL (≈ 29 µM) | IC50 [7]: 31.5 µg/mL (≈ 59.4 µM) | IC50 [9]: 6.88 µg/mL (≈ 13 µM)

— patent publication US11753363B2, “13-oxidized ingenol derivative and use thereof” (Tianjin Pharmaceutical Da Ren Tang Group Corp., Ltd. …, priority 2017, dated 2023)
